Test results taken from BindingDB's records for patent US20250091994 (Kobe University, 2025).

Target: GTPase HRas [G12V] (Homo sapiens, UniProt P01112, G12V)
Assay: In Vitro Ras-Raf Binding Inhibitory Activity Assay
Method: The in vitro Ras-Raf binding inhibitory activity of the compound of the present invention was evaluated by an ELISA method described below. GST-c-Raf-1 RBD diluted with a Ras-Raf binding buffer (50 mM Tris-HCl pH7.4, 150 mM NaCl, 5 mM MgCl2, 1 mM EDTA, and 1% Triton-X100) was added to each well of a glutathione-coated 96-well plate (Thermo Fisher Scientific.), and was incubated at 30° C. for 1 hour, to immobilize Raf on the well. The unbound free Raf was eliminated by washing the well with the Ras-Raf binding buffer three times. Subsequently, GTPTS-bound HRasG12V diluted with the Ras-Raf binding buffer and each compound solution (final DMSO concentration: 10%) were applied to each well, and the resulting mixture was then incubated at 30° C. for 1 hour, so that Ras and Raf were allowed to bind to each other. Thereafter, the plate was washed with the Ras-Raf binding buffer twice, and was then subjected to a blocking treatment at room temperature for 20 minutes, using TBS-Tween {10 mM Tris-HCl pH 7.4, 150 mM NaCl, and 0.05% (w/v) Tween-20}-5% (w/v) bovine serum albumin (BSA). After that, an anti-HRas antibody (C-20, Santa Cruz) or an anti-HRas antibody (259, Santa Cruz), which had been 1000 times diluted with TBS-Tween-5% BSA, was added to the reaction mixture, and incubated at room temperature for 1 hours. After the treatment with the primary antibody, the plate was washed with TBS-Tween-5% BSA three times, and a horseradish peroxidase-labeled secondary antibody against rabbit immunoglobulin G (GE Healthcare) of 1000 times diluted with TBS-Tween-5% BSA, was added to the plate, followed by incubation at room temperature for 1 hour. After the treatment with the secondary antibody, the plate was washed with TBS-Tween-5% BSA three times, and a substrate solution (TMB) was then added to the plate, followed by incubation at room temperature for 15 minutes for coloration. Finally, 2 M H2SO4 was added to stop color development (coloration reaction kit: Nacalai Tesque).

Chain of GTPase HRas [G12V] (P01112 whole entry G12V, looked up): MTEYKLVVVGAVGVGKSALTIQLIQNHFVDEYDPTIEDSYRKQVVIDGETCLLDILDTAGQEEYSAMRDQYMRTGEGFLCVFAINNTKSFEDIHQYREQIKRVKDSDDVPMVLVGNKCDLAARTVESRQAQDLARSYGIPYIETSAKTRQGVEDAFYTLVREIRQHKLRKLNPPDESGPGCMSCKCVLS

SMILES	IC50 [nM]
CC(=O)N1/C(=C\c2ccc3c(-c4cnn(C)c4)c(C(=O)N4CCOCC4)ccc3n2)C(=O)c2ccccc21 [US20250091994, Example 199]	2100
CC(=O)N1CCc2cc(-c3c(C(=O)N4CCOCC4)ccc4nc(/C=C5/C(=O)c6ccccc6N5C(C)=O)ccc34)ccc2C1 [US20250091994, Example 200]	1000
CC(=O)N1CCc2ccc(-c3c(C(=O)N4CCOCC4)ccc4nc(/C=C5/C(=O)c6ccccc6N5C(C)=O)ccc34)cc2C1 [US20250091994, Example 201]	800
CC(=O)N1/C(=C\c2nc(-c3cnn(C)c3)c3ccccc3n2)C(=O)c2ccccc21 [US20250091994, Example 203]	600
CC(=O)N1C(=Cc2cc(C(=O)N3CCN(C4COC4)CC3)c3ccccc3n2)C(=O)c2ccccc21 [US20250091994, Example 204]	1800
CC(=O)N1C(=Cc2cc(-c3ccccc3-c3cnn(C)c3)c3cc(CNC4CCOCC4)ccc3n2)C(=O)c2ccccc21 [US20250091994, Example 206]	2000
CC(=O)N1CCc2c(cccc2-c2cc(/C=C3/C(=O)c4ccccc4N3C(C)=O)nc3ccc(CNC4CCOCC4)cc23)C1 [US20250091994, Example 207]	700
CC(=O)N1CCc2cc(-c3cc(/C=C4/C(=O)c5ccccc5N4C(C)=O)nc4ccc(CNC5CCOCC5)cc34)ccc2C1 [US20250091994, Example 209]	400
CC(=O)N1CCc2ccc(-c3cc(/C=C4/C(=O)c5ccccc5N4C(C)=O)nc4ccc(CNC5CCOCC5)cc34)cc2C1 [US20250091994, Example 211]	600
